Measurements reported in patent US20080299109A1, “MECHANISM OF ASTRICYTE-NEURON SIGNALING” (Korea Institute of Science and Technology, priority 2007, published 2008).

Test system: CA1 pyramidal cells
Assay: Voltage clamp of CA1 pyramidal cells in hippocampal slices, low Mg2+
Assay type: cell-based, rat
Conditions: −60 mV, thrombin 30 nM, TFLLR 30 μM, with and without APV

## thrombin
0.5 μM TTX, 5 μM Mg^2+
  amplitude of inward current: 8.8±3.1 pA
TTX, low Mg^2+
  membrane current variance: 12.4±1.1 pA^2
